Experimental data published in PubChem BioAssay (NCI).
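At the GI50, growth is halved. Definition used: TGI = concentration required for complete inhibition of growth.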

Key:
Assay in all cases: DTP human tumour cell line panel, 384-well format
[1] = system: 786-0 renal
[2] = system: A498 renal
[3] = system: A549 NSCLC
[4] = system: ACHN renal
[5] = system: BT-549 breast
[6] = system: CAKI-1 renal
[7] = system: CCRF-CEM leukemia
[8] = system: COLO 205 colon
[9] = system: DU-145 prostate
[10] = system: EKVX NSCLC
[11] = system: HCC-2998 colon
[12] = system: HCT-116 colon
[13] = system: HCT-15 colon
[14] = system: HL-60(TB) leukemia
[15] = system: HOP-62 NSCLC
[16] = system: HOP-92 NSCLC
[17] = system: HS 578T breast
[18] = system: HT29 colon
[19] = system: IGROV1 ovarian
[20] = system: K-562 leukemia
[21] = system: KM12 colon
[22] = system: LOX IMVI melanoma
[23] = system: M14 melanoma
[24] = system: MALME-3M melanoma
[25] = system: MCF7 breast
[26] = system: MDA-MB-231 breast
[27] = system: MDA-MB-435 melanoma
[28] = system: MDA-MB-468 breast
[29] = system: MOLT-4 leukemia

COc1cc2ncnc(Nc3cccc(Cl)c3F)c2cc1OC(=O)N1CCN(C)C[C@H]1C
GI50 [1]: 14.4 µM
TGI [1]: 29 µM
GI50 [2]: 17 µM
TGI [2]: 42.5 µM
GI50 [3]: 12.3 µM
TGI [3]: 43.1 µM
GI50 [4]: 0.427 µM
TGI [4]: 20.7 µM
GI50 [5]: 20.3 µM
TGI [5]: 46.5 µM
GI50 [6]: 2.3 µM
TGI [6]: 20.4 µM
GI50 [7]: 20.1 µM
TGI [7]: 49.2 µM
GI50 [8]: 22.4 µM
TGI [8]: 54 µM
GI50 [9]: 13.5 µM
TGI [9]: 58.2 µM
GI50 [10]: 0.304 µM
TGI [10]: 16.7 µM
GI50 [11]: 17.3 µM
TGI [11]: 32.4 µM
GI50 [12]: 16.9 µM
TGI [12]: 32.8 µM
GI50 [13]: 13.9 µM
TGI [13]: 29.2 µM
GI50 [14]: 16.5 µM
TGI [14]: 30.2 µM
GI50 [15]: 17.6 µM
TGI [15]: 42 µM
GI50 [16]: 13.4 µM
TGI [16]: 28.5 µM
GI50 [17]: 15.2 µM
TGI [17]: 29.6 µM
GI50 [18]: 14.4 µM
TGI [18]: 31.2 µM
GI50 [19]: 0.241 µM
TGI [19]: 11.9 µM
GI50 [20]: 5.49 µM
TGI [20]: 17.8 µM
GI50 [21]: 20.1 µM
TGI [21]: 41.4 µM
GI50 [22]: 16.3 µM
TGI [22]: 30.5 µM
GI50 [23]: 16.4 µM
TGI [23]: 30.7 µM
GI50 [24]: 15.1 µM
TGI [24]: 28.8 µM
GI50 [25]: 19.8 µM
TGI [25]: 87.4 µM
GI50 [26]: 14.7 µM
TGI [26]: 38.4 µM
GI50 [27]: 22.6 µM
TGI [27]: 55.8 µM
GI50 [28]: 0.128 µM
TGI [28]: 0.446 µM
GI50 [29]: 14.2 µM
TGI [29]: 28.1 µM
